IC50 data for 33 compounds are collected here from patent US7064124B2, “NF-κB inhibitor containing substituted benzoic acid derivative as active ingredient” (Daiichi Suntory Pharma Co., Ltd., priority 2001, dated 2006).

Molecules are shown by their SMILES. Structures can show the parent of a compound that is named as a salt. Where two headings read alike, the source gives them in different places.

The assay concerns NF-κB. Kind of assay: NF-κB luciferase reporter assay in A549/NF-κBLuc cells stimulated with IL-1β. As to conditions: compound added 1 hour before IL-1β, then 3 hours incubation, luciferase activity, read-out: NF-κB Inhibitory Activity (IC50). The assay is classed as cell-based, human. The method, then: Effect on Human Lung Cancer-Derived Cell A549 (A549/NF-κBluc) Containing Stably Introduced Luciferase Plasmid (pNFκB-Luc, Stratagene. U.S.A.) Regulated by NF-κB Binding Sequence
Using Lipofectamine (Lifetech Oriental, Tokyo), pNFκB-Luc and pSV2neo (Clontech, U.S.A.) were co-transfected into the A549 cell (ATCC CCL185) and G418 sulfate (1 mg/ml, Lifetech Oriental) was added to the culture medium to select cells containing stably introduced pNFκB-Luc A549/NF-κBLuc.
The compound obtained in Examples each was added to A549/NF-κBLuc and one hour after that, IL-1β capable of activating NF-κB was added. The incubation was further continued for 3 hours.
NF-κB Inhibitory Activity (IC50) of Substituted Benzoic Acid Derivitives: […]
For orientation: Reporter assays use an easily measured gene product as a stand-in for the process of interest.

The mark [1] stands for this setting: Homo sapiens, A549, A549/NF-κBLuc cells.

One may read the IC50 as the concentration that inhibits the measured activity by half.

`COC1=C(OC)C(=O)C(Cc2ccc(C(=O)N3CCCCC3)c(OCc3ccccc3)c2)=C(C)C1=O` [Example 57, N-[4-(5,6-Dimethoxy-3-methyl-1,4-benzoquinon-2-yl)methyl-2-benzyloxybenzoyl]piperidine]: under setting [1], the IC50 is 29 µM.

With `COC1=C(OC)C(=O)C(Cc2cccc(OCc3ccccc3)c2C(=O)Nc2ccc(OC)cc2)=C(C)C1=O` [Example 60, N-[6-(5,6-Dimethoxy-3-methyl-1,4-benzoquinon-2-yl)methyl-2-benzyloxybenzoyl]-4-methoxyaniline], the IC50 under setting [1] was 19 µM.

`COC1=C(OC)C(=O)C(Cc2ccc(OCc3ccccc3)c(C(=O)N3CCCCC3)c2)=C(C)C1=O` [Example 61, N-[5-(5,6-Dimethoxy-3-methyl-1,4-benzoquinon-2-yl)methyl-2-benzyloxybenzoyl]piperidine]: the IC50 under setting [1] stood at 31 µM.

With `COC1=C(OC)C(=O)C(Cc2cccc(C(=O)N3CCCCC3)c2OCc2ccccc2)=C(C)C1=O` [Example 64, N-[3-(5,6-Dimethoxy-3-methyl-1,4-benzoquinon-2-yl)methyl-2-benzyloxybenzoyl]piperidine], the IC50 under setting [1] worked out at 33 µM.

Regarding `COC1=C(OC)C(=O)C(Cc2cccc(C(=O)N3CCOCC3)c2OCc2ccccc2)=C(C)C1=O` [Example 65, N-[3-(5,6-Dimethoxy-3-methyl-1,4-benzoquinon-2-yl)methyl-2-benzyloxybenzoyl]morpholine], under setting [1], the IC50 is 37 µM.

As to `COC1=C(OC)C(=O)C(Cc2ccc(OC(C)=O)c(C(=O)Nc3ccc(OC)cc3)c2)=C(C)C1=O` [Example 70, N-[5-(5,6-Dimethoxy-3-methyl-1,4-benzoquinon-2-yl)methyl-2-acetoxybenzoyl]-4-methoxyaniline], the IC50 under setting [1] is 15 µM.

For the compound `COC1=C(OC)C(=O)C(Cc2cccc(C(=O)N3CCCCC3)c2OC(C)=O)=C(C)C1=O` [Example 71, N-[3-(5,6-Dimethoxy-3-methyl-1,4-benzoquinon-2-yl)methyl-2-acetoxybenzoyl]piperidine], the IC50 under setting [1] stood at 36 µM.

Turning to `COC1=C(OC)C(=O)C(Cc2cccc(C(=O)N3CCOCC3)c2OC(C)=O)=C(C)C1=O` [Example 72, N-[3-(5,6-Dimethoxy-3-methyl-1,4-benzoquinon-2-yl)methyl-2-acetoxybenzoyl]morpholine], under setting [1], the IC50 worked out at 43 µM.

As for `COC1=C(OC)C(=O)C(Cc2cccc(C(=O)Nc3ccc(OC)cc3)c2OC(C)=O)=C(C)C1=O` [Example 73, N-[3-(5,6-Dimethoxy-3-methyl-1,4-benzoquinon-2-yl)methyl-2-acetoxybenzoyl]-4-methoxyaniline], the IC50 under setting [1] was 31 µM.

On to `COC1=C(OC)C(=O)C(Cc2ccc(O)c(C(=O)Nc3ccc(OC)cc3)c2)=C(C)C1=O` [Example 76, N-[5-(5,6-Dimethoxy-3-methyl-1,4-benzoquinon-2-yl)methyl-2-hydroxybenzoyl]-4-methoxyaniline], for which the IC50 under setting [1] worked out at 7 µM.

For the compound `COC1=C(OC)C(=O)C(Cc2cccc(C(=O)N3CCCCC3)c2O)=C(C)C1=O` [Example 77, N-[3-(5,6-Dimethoxy-3-methyl-1,4-benzoquinon-2-yl)methyl-2-hydroxybenzoyl]piperidine], the IC50 under setting [1] is 35 µM.

In the case of `COC1=C(OC)C(=O)C(Cc2cccc(C(=O)N3CCOCC3)c2O)=C(C)C1=O` [Example 78, N-[3-(5,6-Dimethoxy-3-methyl-1,4-benzoquinon-2-yl)methyl-2-hydroxybenzoyl]morpholine], the IC50 under setting [1] is 57 µM.

As to `COC1=C(OC)C(=O)C(Cc2cccc(C(=O)Nc3ccc(OC)cc3)c2O)=C(C)C1=O` [Example 79, N-[3-(5,6-Dimethoxy-3-methyl-1,4-benzoquinon-2-yl)methyl-2-hydroxybenzoyl]-4-methoxyaniline], under setting [1], the IC50 is 27 µM.

In the case of `COC1=C(OC)C(=O)C(Cc2ccc(OC)c(C(=O)N3CCCCC3)c2)=C(C)C1=O` [Example 80, N-[5-(5,6-Dimethoxy-3-methyl-1,4-benzoquinon-2-yl)methyl-2-methoxybenzoyl]piperidine], the IC50 under setting [1] is 82 µM.

`COC1=C(OC)C(=O)C(Cc2ccc(OC)c(C(=O)Nc3ccc(OC)cc3)c2)=C(C)C1=O` [Example 82, N-[5-(5,6-Dimethoxy-3-methyl-1,4-benzoquinon-2-yl)methyl-2-methoxybenzoyl]-4-methoxyaniline]: the IC50 under setting [1] was 84 µM.

Regarding `COC1=C(OC)C(=O)C(Cc2ccc(OC(C)C)c(C(=O)N3CCOCC3)c2)=C(C)C1=O` [Example 84, N-[5-(5,6-Dimethoxy-3-methyl-1,4-benzoquinon-2-yl)methyl-2-isopropoxybenzoyl]morpholine], the IC50 under setting [1] worked out at 63 µM.

Turning to `COC1=C(OC)C(=O)C(Cc2ccc(OC(C)C)c(C(=O)Nc3ccc(OC)cc3)c2)=C(C)C1=O` [Example 85, N-[5-(5,6-Dimethoxy-3-methyl-1,4-benzoquinon-2-yl)methyl-2-isopropoxybenzoyl]-4-methoxyaniline], under setting [1], the IC50 stood at 65 µM.

On to `COC1=C(OC)C(=O)C(Cc2ccc(Oc3ccccc3)c(C(=O)N3CCCCC3)c2)=C(C)C1=O` [Example 86, N-[5-(5,6-Dimethoxy-3-methyl-1,4-benzoquinon-2-yl)methyl-2-phenoxybenzoyl]piperidine], for which, under setting [1], the IC50 stood at 27 µM.

As for `COC1=C(OC)C(=O)C(Cc2ccc(Oc3ccccc3)c(C(=O)N3CCOCC3)c2)=C(C)C1=O` [Example 87, N-[5-(5,6-Dimethoxy-3-methyl-1,4-benzoquinon-2-yl)methyl-2-phenoxybenzoyl]morpholine], the IC50 under setting [1] came to 19 µM.

Regarding `COC1=C(OC)C(=O)C(Cc2ccc(Oc3cccc(OC)c3)c(C(=O)N3CCCCC3)c2)=C(C)C1=O` [Example 89, N-[5-(5,6-Dimethoxy-3-methyl-1,4-benzoquinon-2-yl)methyl-2-(3-methoxyphenoxy)benzoyl]piperidine], the IC50 under setting [1] stood at 45 µM.

As to `COC1=C(OC)C(=O)C(Cc2ccc(OCc3cccnc3)c(C(=O)N3CCCCC3)c2)=C(C)C1=O` [Example 92 (HCl)], for the setting “A549/NF-κBLuc cells”, the IC50 amounted to 46 µM.

On to `COC1=C(OC)C(=O)C(Cc2ccc(OCc3cccnc3)c(C(=O)N3CCCCC3)c2)=C(C)C1=O` [Example 92, N-[5-(5,6-Dimethoxy-3-methyl-1,4-benzoquinon-2-yl)methyl-2-(3-pyridylmethyloxy)benzoyl]piperidine], for which the IC50 under setting [1] was determined as 49 µM.

Take `COC1=C(OC)C(=O)C(Cc2ccc(OCc3cccnc3)c(C(=O)Nc3ccc(OC)cc3)c2)=C(C)C1=O` [Example 94, N-[5-(5,6-Dimethoxy-3-methyl-1,4-benzoquinon-2-yl)methyl-2-(3-pyridylmethyloxy)benzoyl]-4-methoxyaniline]: the IC50 under setting [1] came out at 45 µM.

In the case of `COC1=C(OC)C(=O)C(Cc2ccc(OCc3ccncc3)c(C(=O)N3CCCCC3)c2)=C(C)C1=O` [Example 95 (pTsOH)], the IC50 (A549/NF-κBLuc cells) was found to be 51 µM.

Turning to `COC1=C(OC)C(=O)C(Cc2ccc(OCc3ccncc3)c(C(=O)N3CCCCC3)c2)=C(C)C1=O` [Example 95, N-[5-(5,6-Dimethoxy-3-methyl-1,4-benzoquinon-2-yl)methyl-2-(4-pyridylmethyloxy)benzoyl]piperidine], under setting [1], the IC50 was found to be 35 µM.

For the compound `COC1=C(OC)C(=O)C(Cc2ccc(OCC(=O)OC(C)(C)C)c(C(=O)N3CCCCC3)c2)=C(C)C1=O` [Example 104, N-[5-(5,6-Dimethoxy-3-methyl-1,4-benzoquinon-2-yl)methyl-2-(tert-butoxycarbonylmethyloxy)benzoyl]piperidine], the IC50 under setting [1] was 29 µM.

Regarding `COC1=C(OC)C(=O)C(Cc2ccc(OC(C)=O)c(C(=O)Nc3cc(OC)c(OC)c(OC)c3)c2)=C(C)C1=O` [Example 106, N-[5-(5,6-Dimethoxy-3-methyl-1,4-benzoquinon-2-yl)methyl-2-acetoxybenzoyl]-3,4,5-trimethoxyaniline], under setting [1], the IC50 came to 70 µM.

`COC1=C(OC)C(=O)C(Cc2ccc(OC(C)=O)c(C(=O)Nc3ccc(OC)c(OC)c3)c2)=C(C)C1=O` [Example 107, N-[5-(5,6-Dimethoxy-3-methyl-1,4-benzoquinon-2-yl)methyl-2-acetoxybenzoyl]-3,4-dimethoxyaniline]: the IC50 under setting [1] was found to be 84 µM.

In the case of `COC1=C(OC)C(=O)C(Cc2ccc(OC(C)=O)c(C(=O)Nc3ccc(C(C)=O)cc3)c2)=C(C)C1=O` [Example 108, N-[5-(5,6-Dimethoxy-3-methyl-1,4-benzoquinon-2-yl)methyl-2-acetoxybenzoyl]-4-acetylaniline], the IC50 under setting [1] came out at 67 µM.

For `COC1=C(OC)C(=O)C(Cc2ccc(OC(C)=O)c(C(=O)Nc3ccc(Cl)cc3)c2)=C(C)C1=O` [Example 109, N-[5-(5,6-Dimethoxy-3-methyl-1,4-benzoquinon-2-yl)methyl-2-acetoxybenzoyl]-4-chloroaniline], under setting [1], the IC50 came out at 46 µM.

On to `COC1=C(OC)C(=O)C(Cc2ccc(OC(C)=O)c(C(=O)Nc3ccc(N4CCOCC4)cc3)c2)=C(C)C1=O` [Example 110, N-[5-(5,6-Dimethoxy-3-methyl-1,4-benzoquinon-2-yl)methyl-2-acetoxybenzoyl]-4-morpholinoaniline], for which the IC50 under setting [1] was 34 µM.

On to `COC1=C(OC)C(=O)C(Cc2ccc(OC(C)=O)c(C(=O)Nc3ccc(C#N)cc3)c2)=C(C)C1=O` [Example 111, N-[5-(5,6-Dimethoxy-3-methyl-1,4-benzoquinon-2-yl)methyl-2-acetoxybenzoyl]-4-cyanoaniline], for which the IC50 under setting [1] came out at 25 µM.

As for `COC1=C(OC)C(=O)C(Cc2ccc(O)c(C(=O)Nc3cc(OC)c(OC)c(OC)c3)c2)=C(C)C1=O` [Example 114, N-[5-(5,6-Dimethoxy-3-methyl-1,4-benzoquinon-2-yl)methyl-2-hydroxybenzoyl]-3,4,5-trimethoxyaniline], the IC50 under setting [1] is 48 µM.
